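Values below derive from 48-hour exposures of cells grown in 96-well plates, with endpoints linearly interpolated between the two concentrations bracketing the appropriate inhibition level. Here, GI50 denotes the concentration required for 50% inhibition of growth. TGI: total growth inhibition.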
Tests used:
Experiment in all cases: inhibition of tumour cell growth, NCI panel, 48 h; in the data active = GI50 below about 0.43 µM; inactive = the rest
SR leukemia = tested on: SR leukemia
NCI-H460 lung = tested on: NCI-H460 lung
HL-60(TB) leukemia = tested on: HL-60(TB) leukemia
SF-539 CNS = tested on: SF-539 CNS
OVCAR-3 ovarian = tested on: OVCAR-3 ovarian
MOLT-4 leukemia = tested on: MOLT-4 leukemia
SF-268 CNS = tested on: SF-268 CNS
UO-31 renal = tested on: UO-31 renal
A498 renal = tested on: A498 renal
UACC-62 melanoma = tested on: UACC-62 melanoma
HCT-15 colon = tested on: HCT-15 colon
PC-3 prostate = tested on: PC-3 prostate
OVCAR-8 ovarian = tested on: OVCAR-8 ovarian
HS 578T breast = tested on: HS 578T breast
ACHN renal = tested on: ACHN renal
OVCAR-4 ovarian = tested on: OVCAR-4 ovarian
U251 CNS = tested on: U251 CNS
SNB-19 CNS = tested on: SNB-19 CNS
NCI-H226 lung = tested on: NCI-H226 lung
K-562 leukemia = tested on: K-562 leukemia
SN12C renal = tested on: SN12C renal
NCI-H23 lung = tested on: NCI-H23 lung
SNB-75 CNS = tested on: SNB-75 CNS
RPMI-8226 leukemia = tested on: RPMI-8226 leukemia
SK-OV-3 ovarian = tested on: SK-OV-3 ovarian
HCC-2998 colon = tested on: HCC-2998 colon
786-0 renal = tested on: 786-0 renal
MCF7 breast = tested on: MCF7 breast
EKVX NSCLC = tested on: EKVX NSCLC
TK-10 renal = tested on: TK-10 renal
BT-549 breast = tested on: BT-549 breast
LOX IMVI melanoma = tested on: LOX IMVI melanoma
OVCAR-5 ovarian = tested on: OVCAR-5 ovarian
A549 NSCLC = tested on: A549 NSCLC
SW-620 colon = tested on: SW-620 colon
SK-MEL-28 melanoma = tested on: SK-MEL-28 melanoma
CAKI-1 renal = tested on: CAKI-1 renal
HT29 colon = tested on: HT29 colon
M14 melanoma = tested on: M14 melanoma
NCI/ADR-RES ovarian = tested on: NCI/ADR-RES ovarian
T-47D breast = tested on: T-47D breast
HOP-92 NSCLC = tested on: HOP-92 NSCLC
COLO 205 colon = tested on: COLO 205 colon
KM12 colon = tested on: KM12 colon
UACC-257 melanoma = tested on: UACC-257 melanoma
SF-295 CNS = tested on: SF-295 CNS
HOP-62 NSCLC = tested on: HOP-62 NSCLC
NCI-H522 lung = tested on: NCI-H522 lung
DU-145 prostate = tested on: DU-145 prostate
MDA-MB-435 = tested on: MDA-MB-435
CCRF-CEM leukemia = tested on: CCRF-CEM leukemia

COc1ccc2c(c1)C/C(=C\c1ccc(O)c(OC)c1)C2=O
> 100 µM: TGI (SR leukemia) | TGI (NCI-H460 lung) | TGI (HL-60(TB) leukemia) | TGI (SF-539 CNS) | TGI (OVCAR-3 ovarian) | TGI (MOLT-4 leukemia) | TGI (SF-268 CNS) | TGI (UO-31 renal) | TGI (A498 renal) | TGI (UACC-62 melanoma) | TGI (HCT-15 colon) | TGI (PC-3 prostate) | TGI (OVCAR-8 ovarian) | TGI (HS 578T breast) | TGI (ACHN renal) | TGI (OVCAR-4 ovarian) | TGI (U251 CNS) | TGI (SNB-19 CNS) | TGI (NCI-H226 lung) | TGI (K-562 leukemia) | TGI (SN12C renal) | TGI (NCI-H23 lung) | TGI (SNB-75 CNS) | TGI (RPMI-8226 leukemia) | TGI (SK-OV-3 ovarian) | TGI (HCC-2998 colon) | TGI (786-0 renal) | TGI (MCF7 breast) | TGI (EKVX NSCLC) | TGI (TK-10 renal) | TGI (BT-549 breast) | TGI (LOX IMVI melanoma) | TGI (OVCAR-5 ovarian) | TGI (A549 NSCLC) | TGI (SW-620 colon) | TGI (SK-MEL-28 melanoma) | TGI (CAKI-1 renal) | TGI (HT29 colon) | TGI (M14 melanoma) | TGI (NCI/ADR-RES ovarian)

CC(=O)O[C@H]1CC[C@]2(C)[C@H]3CC[C@@H]4[C@H]5[C@H](C(C)C)CC[C@]5(C(=O)OCC(CO)(CO)N=C(N)N)CC[C@@]4(C)[C@]3(C)CC[C@H]2C1(C)C
3.12 µM: TGI (TK-10 renal)
3.32 µM: TGI (OVCAR-4 ovarian)
3.71 µM: TGI (HCT-15 colon)
5.45 µM: TGI (OVCAR-8 ovarian)
3.11 µM: TGI (MDA-MB-435)
5.17 µM: TGI (NCI/ADR-RES ovarian)
2.91 µM: TGI (T-47D breast)
3.56 µM: TGI (HOP-62 NSCLC)
5.51 µM: TGI (CCRF-CEM leukemia)
3.55 µM: TGI (COLO 205 colon)
3.2 µM: TGI (OVCAR-3 ovarian) | TGI (DU-145 prostate)
3.67 µM: TGI (A498 renal)
3.28 µM: TGI (A549 NSCLC)
4.61 µM: TGI (SR leukemia)
3.16 µM: TGI (NCI-H522 lung)
3.26 µM: TGI (ACHN renal)
5.04 µM: TGI (HS 578T breast)
3.97 µM: TGI (UACC-257 melanoma)
3.23 µM: TGI (SNB-75 CNS)
3.53 µM: TGI (EKVX NSCLC)
4.81 µM: TGI (RPMI-8226 leukemia)
3.09 µM: TGI (PC-3 prostate) | TGI (OVCAR-5 ovarian)
2.93 µM: TGI (HOP-92 NSCLC)
inactive: GI50 (SR leukemia) 2.11 µM | GI50 (HL-60(TB) leukemia) 1.79 µM | GI50 (T-47D breast) 1.51 µM | GI50 (SF-539 CNS) 1.83 µM | GI50 (OVCAR-3 ovarian) 1.67 µM | GI50 (MOLT-4 leukemia) 2.1 µM | GI50 (HOP-92 NSCLC) 1.48 µM | GI50 (A498 renal) 1.86 µM | GI50 (HCT-15 colon) 1.79 µM | GI50 (PC-3 prostate) 1.59 µM | GI50 (OVCAR-8 ovarian) 2.32 µM | GI50 (HS 578T breast) 2.05 µM | GI50 (ACHN renal) 1.8 µM | GI50 (OVCAR-4 ovarian) 1.68 µM | GI50 (COLO 205 colon) 1.88 µM | GI50 (SNB-75 CNS) 1.57 µM | GI50 (KM12 colon) 1.75 µM | GI50 (RPMI-8226 leukemia) 2.07 µM | GI50 (UACC-257 melanoma) 1.82 µM | GI50 (SK-OV-3 ovarian) 2 µM | GI50 (SF-295 CNS) 1.86 µM | GI50 (EKVX NSCLC) 1.8 µM | GI50 (TK-10 renal) 1.67 µM | GI50 (HOP-62 NSCLC) 1.82 µM | GI50 (OVCAR-5 ovarian) 1.67 µM | GI50 (A549 NSCLC) 1.71 µM | GI50 (NCI-H522 lung) 1.6 µM | GI50 (DU-145 prostate) 1.7 µM | GI50 (CAKI-1 renal) 1.46 µM | GI50 (HT29 colon) 1.75 µM | GI50 (NCI/ADR-RES ovarian) 2.23 µM | GI50 (MDA-MB-435) 1.64 µM | GI50 (CCRF-CEM leukemia) 2.24 µM
2.98 µM: TGI (CAKI-1 renal)
3.96 µM: TGI (SK-OV-3 ovarian)
3.34 µM: TGI (SF-539 CNS)
3.79 µM: TGI (SF-295 CNS)
4.83 µM: TGI (MOLT-4 leukemia)
3.36 µM: TGI (KM12 colon)
4.26 µM: TGI (HL-60(TB) leukemia)
3.29 µM: TGI (HT29 colon)

From PubChem BioAssay (NCI)
